A short description of data set [1]: Treatment of spinal cord injured rats and cats with alpha-adrenoceptor agonists. Type of data set: in vivo. Here is the method:
The animals are treated with a guanidino compound, e.g., guanphylline or aminoguanphylline, twice daily (1 mg/kg). Approximately 10, 14 and 20 days after treatment with, e.g., guanphylline or aminoguanphylline is commenced, these animals can also be treated with a serotonergic (“5-HT”) receptor agonist; such as quipazine (1–2 mg/kg). Such serotonergic compounds can accelerate the recovery period, i.e., shorten the period after which time the animals become mobile. The animals should then continue to be treated systemically with the guanidino compound twice daily for six to eight weeks, or until functional recovery has been achieved.
Many rats and cats have been treated with several alpha-adrenoceptor agonists in order to ascertain which drug has the least side effects and reduces the time period for recovery.

Data set [2] is described as follows: Blood pressure after administration, cat. The format is in vivo.
Data set [3] in a line: Blood pressure after administration, sheep. The format is in vivo.
The nature of data set [4]: Spasticity in previously untreated spinal cord transected rats (Working Example 2). Type of data set: in vivo, rat. The conditions noted are these: 4.0 mg/kg BID intraperitoneally for 7 days. From the text: It was noted that some of the untreated rats in Comparative Example A developed severe spasticity three weeks after transection.
A short description of data set [5]: Spinal cord transection in rats: recovery of hind limb function and reflexes under treatment. Type of data set: in vivo, rat. Here is the method:
The spinal cord of a group of rats was completely transected. After surgery, the rats were treated with guanabenz.
The rats presented with a condition of bloody eyes and nose for a period of 2 to 5 days after the transection. During the first two-weeks, proper plantar placement, weight bearing on the hind limbs and/or coordinated walking was not present.
In a further group of six rats the spinal cord was transected in accordance with the above Comparative Examples. After surgery and cleaning and mechanical treatment of the wounds in the same fashion, an intraperitoneal injection of 7-(guanidino-acetyl-theophylline (“C”) was administered at a dose of 5.0 mg/kg 24 hours post surgery. Within a 7 to 9 day period, the rats engaged in walking movements of the hind limbs coordinated with those of the front limbs and the hind limbs, including proper plantar placement and full weight bearing on the hind limbs.
Within 36 hours after the spinal cord transection, i.e., only 12 hours after initial administration of Compound C, the initial bloody eyes and nose condition had abated. […] Further the animals were alert and continued to eat in substantially normal quantities.
Starting 24 hours post-transection, immediately after each intraperitoneal administration of Compound C, reflexes such as the tail-flick and cross-extension would return, within 12 minutes post injection. […] Within 8 to 11 days the response became sustained, and was accompanied by long-term therapeutic restoration of coordinated movements, plantar placements and weight-bearing by the hind limbs.

The nature of data set [6]: Intravenous anesthesia of a 70 kg mammal. The format is in vivo. Here is the method:
Thereafter, an intravenous injection containing 20 mg of aminophylline is administered over a period of five minutes. The large mammal is fully awakened within about 20 minutes, appearing alert and refreshed.
The period of time required to fully reverse the anesthesia can be increased or decreased by proportionally changing the amount of the antagonist. After metabolism of guanabenz, the mammal will spontaneously awaken, within about three to six hours after the I.V. drip is discontinued.

A short description of data set [7]: Electrical tail stimulation, vocalization threshold (anesthesia) in rats. The format is in vivo, rat. Here is the method: A fifth rat was treated with merely an equal amount of the dextrose solution without guanabenz acetate. The rats were subjected to an electrical tail stimulation, by electrodes attached to their tails, to determine the point of positive (threshold) vocalization.
The normal vocalization threshold, and the point at which the control rat vocalized was approximately 7 volts. […] To bring the rats out of anesthesia, the rats were then injected with 40 mgs. of aminophylline, also in 1 ml of a 5% aqueous dextrose solution. […] The normal threshold for vocalization was reestablished, as there was no vocalization at 6 volts following recovery from anesthesia.
The rats were maintained under anaesthesia for a period of 50 minutes before injection of the aminophylline.

The nature of data set [8]: Core temperature of treated rats in a room at minus 30° C. The format is in vivo, rat. The conditions noted are these: four rats, 4 mg intraperitoneally, placed about 30 minutes after injection. Here is the method:
(room temperature). […] (plus or minus 0.5° C.). The core temperatures of the four treated rats, as well as that of two control rats who received only the dextrose solution, were continuously monitored.

A short description of data set [9]: Brain and core temperature of treated rats in a room at 4°–5°. The format is in vivo, Sprague-Dawley rats. Particulars: 12 mg/kg IP. Here is the method:
All sixteen rats were placed in a temperature-controlled room maintained at 4°–5° d. immediately after injection.

How the values of data set [10] were obtained:
Room temperature was 21.5° C.
The core temperatures of the rats were allowed to fall to approximately 30° C., after about 15 minutes. At that time, the rats were placed in a temperature controlled room maintained at 42° C., together with 2 control rats treated only with the dextrose solution.
The core temperatures of the rats were allowed to fall to approximately 30° C. At that time, the rats were placed in a temperature controlled room maintained at 42° C., together with two control rats treated only with the dextrose solution.

A short description of data set [11]: Anesthesia in rats judged by reflexes and wakefulness.
Data set [12] in a line: Formation of scar tissue at the trauma site. Type of data set: in vivo. From the text: It is believed that these mixed agonists interfere with triple helix formation in the synthesis of collagen protein, thus preventing or reducing the formation of hard scar tissue at the trauma site.
The purpose of liquid nitrogen is to reduce the structural integrity of the collagen laden, glial scar tissue, by freezing and defrosting. Collagenase then initiates a debridgement of the scar without attacking the nervous and osseous tissue. If required, streptokinase, or alteplase, both plasminogen activators can also be used to bring about a complete debridgement. In addition to 3-amino-propionitrile (a latherogen), 5-fluorodeoxyuridine and dehydroproline can be used to arrest further glial and fibroblastic invasion of the scar region, respectively.

A short description of data set [13]: Spinal cord trauma (500 g-cm weight drop at T4) in cats: urinary bladder function, micturition. Type of data set: in vivo, cat. Here is the method:
A cat was anesthetized using intravenous pentobarbital (30 mg/kg) after which its arterial blood pressure was continuously monitored for at least two hours. After recording stable arterial blood pressure, a dorsal laminectomy was performed in the thoracic region of the cat from T3 to T5; after restoration of blood pressure, the cat was traumatized by means of a twenty gram weight being dropped from a height of twenty-five centimeters (500 g-cm force) on the exposed dura of the spinal cord at the fourth thoracic segment.
Ten cats were spinally traumatized in accordance with the procedure set forth above in Comparative Example A. Five of these spinal cats were treated with Compound C commencing three hours after trauma and five of the cats were treated with guanabenz beginning at the same time.
Spinalized cats required eight weeks of treatment with guanabenz before regaining controlled micturition. Cats treated with Compound C, required only three to five weeks of treatment to achieve the same results.

Where [14] appears, read: 5.0 mg/kg intraperitoneal 24 hours post surgery.
[15] abbreviates: Sprague-Dawley rats, 4 mg, tolazoline 4 mg intravenously about twenty minutes before.
Setting [16] is: 4 mg I.P., room temperature 21.5° C.

For the compound `Cn1c(=O)c2c(ncn2C(=O)CNC(=N)N)n(C)c1=O` [7-(guanidinoacetyl)-theophylline], the “efficacy in treated rats and cats” value in data set [1] is reported as “found efficacious”.

Take `Cn1c(=O)c2c(ncn2CC(=O)NC(=N)N)n(C)c1=O` [C, Guanidino-7-Acetyltheophylline]: in data set [2], the “blood pressure immediately after administration” value is listed as “slight increase” and the “time until blood pressure returned to basal level” value is at most 10 min. Besides, in data set [3], the “blood pressure immediately after administration” value is on record as “slight increase” and the “time until blood pressure returned to basal level” value is at most 10 min. In [4] (three spastic control rats three weeks after transection), the “time until marked decrease in spasticity” value is given as at most 4 days. Also, in data set [4] (three spastic control rats), the “time until complete elimination of spasticity” value is 7 days. Besides, in [5] (setting [14]), the “time after initial administration until bloody eyes and nose condition had abated” value amounted to 12 h; the “time after spinal cord transection until bloody eyes and nose condition had abated” value is at most 36 h. For the same compound, the “time post injection until return of reflexes (tail-flick, cross-extension)” value in data set [5] (after each intraperitoneal administration, starting 24 hours post-transection) is at most 12 min. The “period until walking movements of the hind limbs coordinated with the front limbs, proper plantar placement and full weight bearing” value in data set [5] (six spinal transected rats, 5.0 mg/kg intraperitoneal from 24 hours post surgery) was 7 to 9 days. Also, the “signs of sedation or lethargy during the course of treatment” value in data set [5] (spinal transected rats, 5.0 mg/kg intraperitoneal) is “did not exhibit any signs of sedation or lethargy”. In data set [5] (spinal transected rats, intraperitoneal), the “time until the response became sustained with long-term restoration of coordinated movements” value was in the range of 8 to 11 days.

On to `N=C(N)N/N=C/c1c(Cl)cccc1Cl` [guanabenz], for which the “total amount in the initial single dose for anesthetic and hypothermic effect” value in data set [6] (60 to 75 kg mammal, intravenous injection) is at most 0.5 mg/kg. Further, the “reaction to noxious stimulation and corneal reflex” value in data set [6] (70 kg mammal, 6 mg intravenous) is “does not overtly react to the noxious stimulation of pin-pricks”. The “time after injection until profound anesthesia” value in [6] (70 kg mammal, 6 mg intravenous over three minutes) is listed as “five”. The “additional duration of profound anesthesia after the drip” value in data set [6] (70 kg mammal, drip 0.1 mg/ml at 1 ml/min for 30 minutes from about 120 minutes after the initial injection) is given as “about two”. In data set [6] (large mammal, after metabolism of guanabenz), the “time to spontaneous awakening after the I.V. drip is discontinued” value is given as “three to six”. In data set [7] (setting [15]), the “duration of anesthesia without further administration” value is on record as “four” and the time until anesthetized entry was “five”. Besides, the “vocalization threshold on electrical tail stimulation (failed to vocalize)” value in data set [7] (rats 310–350 g, 4 mg intraperitoneally, beginning seven minutes after injection, normal threshold 7 volts) is on record as over 10 volts. In addition, the “vocalization threshold on electrical tail stimulation (no vocalization response)” value in data set [7] (rats, 4 mg intraperitoneally, thereafter (profoundly anesthetized)) is given as over 40 Volts. Besides, the “core temperature approximately 15 minutes after placement in the cold room” value in data set [8] is about 16 °C. The “behavior after the experiment” value in data set [9] is given as “resume normal behavior”. For the same compound, the “core temperature lower than the brain temperature by” value in data set [9] (ultimately) was found to be 10 °C. In [9] (8 rats, original mean 37° C.), the “mean brain temperature after 45 minutes” value came to 27 °C. Moreover, in data set [10] (setting [16]), the mean intraperitoneal temperature is 31.5 °C; the “temperatures of the liver and the kidneys” value is “about 33.5 °C”. The “core temperature (colonic measurement) after drop” value in [10] (eight rats each, 4 mg I.P. in 5% dextrose, room temperature 21.5° C., normal value 36.5° C.) stood at 22.5 °C. Besides, in [10] (four rats, 4 mg intraperitoneally, room temperature 21° C., before cold room), the “core temperature after drop” value is 21 °C. For the same compound, the “anesthetic state of the treated rats” value in data set [11] (setting [16]) is recorded as “anesthetized”. Besides, the “I.P. amount sufficient to initially place the rats in an anesthetized condition” value in data set [11] (laboratory rats, I.P.) was 12 mg per kilogram of body weight. Also, the “muscle mass of hind limbs” value in data set [5] (spinal transected rats under I.P. treatment) is “some, but not significant loss of muscle mass”. The “duration of sedation following each administration” value in data set [5] (spinal transected rats, 0.65 mg/kg I.P. twice per day from 72 hours after the lesion) was in the range of 2 to 4 h. Also, in data set [5] (spinal transected rats, 0.65 mg/kg I.P. twice per day, majority of the rats), the “time of treatment until proper plantar placement, weight bearing on the hind limbs and coordinated walking movements” value is reported as “third week”. Further, in data set [12], the “effect on formation of the scar” value was “interfere with formation of the scar”. For the same compound, the “urinary bladder function at urodynamic examination” value in data set [13] (spinal cats, 0.65 mg/kg bid from three hours after trauma, guanabenz four to five weeks after treatment began, Compound C after seven to twenty-one days) was “tight urinary sphincter and dyssinergia”. The “treatment required before regaining controlled micturition” value in data set [13] (spinalized cats) is listed as “eight”.

(Values after patent US7109329B2, “Neurologically active compounds and compounds with multiple activities” (priority 1988, dated 2006).)
